Literature values, collected in patent publication US20120034285A1, “Mosquito Net with Dinotefuran and PBO for Killing Mosquitoes, Especially Mosquitoes with Pyrethroid Resistance” (priority 2009, published 2012).

Columns and labels:
Anopheles gambiae = conditions: in vivo
Aedes aegypti = conditions: in vivo
Culex quinquefasciatus = conditions: in vivo
[1] = system: mosquito strain VKPR (also termed VKPER) of the An. gambiae species; conditions: strain with mutation for knockdown-resistance against pyrethroids
mosquitoes = conditions: in contrast to pyrethroids; also mentioned in JP 10 139604
cockroaches = conditions: PBO added as an oxidase inhibitor; Dinotefuran injected into the stomach

CN/C(=N/CC1CCOC1)N[N+](=O)[O-] (stereo not drawn) [Dinotefuran]
lethal effect (Anopheles gambiae): lethal effect | lethal effect (Aedes aegypti): lethal effect | lethal effect (Culex quinquefasciatus): lethal effect | lethal effect [1]: lethal effect | mosquito repellent effect (mosquitoes): does not have a mosquito repellent effect | toxicity on cockroaches (cockroaches): increased toxicity
